Tests used:
intracellular ROS [1] = assay: Intracellular ROS production against hydrogen peroxide (DCF-DA); format: cell-based, human; settings: added before and after 0.2 mM hydrogen peroxide, 1-300 μg/mL
Method: (§1) Measurement of intracellular ROS was performed using fluorescence using dichlorofluorescin diacetate (DCF-DA; Invitrogen, Carlsbad, CA, USA). Specifically, cells were washed with PBS, and then incubated with 10 μM DCF-DA at 37° C. for 20 minutes. The intracellular ROS level was measured at an excitation wavelength of 525 nm using fluorescence intensity using the micro plate reader (SYNERGY/HT, BioTek, Japan).
(§2) Normal human dermal fibroblasts were cultured for 2 hours in a culture solution to which 0.2 mM hydrogen peroxide was added, then washed off with PBS, and replaced with a normal medium to continue the cultivation. VB2 and VB3 were each added at any timing before or after hydrogen peroxide was added, and co-cultured for 4 hours. Thereafter, the cells or the culture solution were recovered.
According to the procedure described in “Measurement of Cell Viability” above, normal human dermal fibroblasts were treated and cultured (co-culture), and cells or the culture solution was recovered. The concentrations of VB2 and VB3 used and the notation of the samples in FIGS. 6 and 7, which are graphs showing the results, are also similar to the above “Measurement of Cell Viability”.
The measurement of intracellular ROS and the measurement of superoxide (SOD) were performed by the same methods as the methods described in “Measurement of Intracellular Reactive Oxygen (ROS) Production and Superoxide (SOD) against AGE” above, respectively.
FIGS. 6 and 7 show the results of each sample when Control is 100%.

RAGE = RAGE mRNA level by qRT-PCR in AGE-treated fibroblasts; format: cell-based, human; settings: co-existence with AGE 100 μg/mL, 4 hours, compared with AGE single stimulation group
Method: (§3) Normal human dermal fibroblasts (NHDF), juvenile foreskin (C-12300, PromoCell) were cultured in a dedicated medium, Fibroblast Growth Medium (C-23010, PromoCell) at 37° C. in a 5% CO2 incubator.
(§4) First, as a co-existence group of VB and AGE, normal human dermal fibroblasts were treated with AGE (100 μg/mL), and the above VB2 (concentration after dilution: 115 μg/ml) and VB3 (concentration after dilution: 1000 μg/mL) diluted to an accurate 1/1000 amount were each added and retained at 37° C. for 4 hours. […]
(§5) Then, total RNA was extracted from the cells using Trizol reagent (Ambion), and mRNA levels of AGE receptor (FEEL-1, FEEL-2, CD-36, AGE-R1, AGE-R2, AGE-R3 and RAGE) and heat shock protein (Hsp104, gp96, Hsp90, Hsp70, Hsp60, and Hsp32) were measured by qRT-PCR (one-step quantitative reverse transcription-polymerase chain reaction) method. […]
(§6) The qRT-PCR method used for the measurement of AGE receptor, heat shock protein, aquaporin, hyaluronic acid, and Elastin will be described. In the qRT-PCR method, 500 ng of the obtained total RNA was used as a template for PCR, and one step RT-PCR capable of performing CDNA synthesis by a reverse transcription reaction (Reverse Transcriptase; RT reaction) and quantitative PCR in one test tube was performed using Luna Universal One-Step qRT-PCR Kit. […]

intracellular ROS [2] = assay: Intracellular ROS against AGE (DCF-DA fluorescence); format: cell-based, human; settings: AGE 100 μg/mL, 4 hours, FIG. 3
Method: as §3
Normal human dermal fibroblasts were treated with AGE (100 μg/mL) and maintained at 37° C. for 4 hours with the addition of VB2 and VB3, respectively. Here, VB2 and VB3 were added at concentrations of 1 μg/mL, 10 μg/mL, 100 μg/mL, and 300 μg/mL, respectively. In FIGS. 3 and 4, which are graphs showing the results, those to which VB2was added were denoted as “VB2-AGE”, and those to which VB3 was added were denoted as “VB3-AGE”.
As Control, measurement was also performed on normal human dermal fibroblasts which were not treated with AGE and were held at 37° C. for 4 hours without addition of VB2 or VB3, and as an AGE single stimulation group, measurement was also performed on normal human dermal fibroblasts which were treated with AGE (100 μg/mL) and were held at 37° C. for 4 hours without addition of VB2 or VB3 (in FIGS. 3 and 4, it is denoted as “AGE”.).
as §1, with “Specifically, cells were washed with PBS, and then incubated with 10 μM DCF-DA at 37° C. for 20 minutes.” left out

FEEL-1 = FEEL-1 mRNA level by qRT-PCR in AGE-treated fibroblasts; format: cell-based, human; settings: co-existence with AGE 100 μg/mL, 4 hours, compared with AGE single stimulation group
Method: as §3, §4, §5, §6

AQP-1 = AQP-1 mRNA level under oxidative stress (qRT-PCR); format: cell-based, human
Method: as §2
(§7) According to the procedure described in “Measurement of Cell Viability” above, normal human dermal fibroblasts were treated and cultured (co-culture), and cells or the culture solution was recovered. The notation of the sample in FIGS. 8 and 9, which are graphs showing the results, is also the same as in the “Measurement of Cell Viability” described above.
(§8) The measurement of aquaporin was performed for AQP-1 and AQP-3 by a qRT-PCR method, and the measurement result was obtained by a ΔΔCt method. […] The qRT-PCR method is s specifically described in “qRT-PCR method” described later.
(§9) The qRT-PCR method used for the measurement of AGE receptor, heat shock protein, aquaporin, hyaluronic acid, and Elastin will be described. In the qRT-PCR method, 500 ng of the obtained total RNA was used as a template for PCR, and one step RT-PCR capable of performing CDNA synthesis by a reverse transcription reaction (Reverse Transcriptase; RT reaction) and quantitative PCR in one test tube was performed using Luna Universal One-Step qRT-PCR Kit.
(§10) As a PCR device, Thermal Cycler Dice Real Time System II manufactured by Takara was used. As one reaction system, 10 μL of Luna Universal One-Step Reaction Mix (2×), 1 μL of Luna WarmStart RT Enzyme Mix (20×), 0.8 μL of Forward primer (10 μM), 0.8 μL of Reverse primer, and Total RNA as a template for the PCR were used, and the total amount was adjusted to 20 μL in Nuclease-free Water.
(§11) The reaction was performed under the conditions of 1 cycle of 30 seconds at 95° C., and further cycles of 5 seconds at 95° C. and 30 seconds at 60° C. for 50 cycles. A variation in mRNA expression by 4 times or more (2 cycles as PCR reaction) was determined as a significant difference.

SOD = SOD amount against hydrogen peroxide (SOD Assay Kit); format: cell-based, human; settings: added before and after 0.2 mM hydrogen peroxide, 1-300 μg/mL (H2O2 only 56% of Control)
Method: Superoxide (SOD) was measured using SOD Assay Kit (Cayman Chemical, Ann arbor, MI, USA). Cells that had been subjected to various treatments were incubated for 24 hours, and then a Lysis buffer was added, homogenized, and centrifuged. Then, 10 μL of each sample was mixed with 200 μL of xanthine oxidase at room temperature. After 30 minutes, the absorbance at 450 nm was measured.
as §2
According to the procedure described in “Measurement of Cell Viability” above, normal human dermal fibroblasts were treated and cultured (co-culture), and cells or the culture solution was recovered. The concentrations of VB2 and VB3 used and the notation of the samples in FIGS. 6 and 7, which are graphs showing the results, are also similar to the above “Measurement of Cell Viability”. […]

hyaluronic acid = assay: Hyaluronic acid secreted into culture supernatant (ELISA); format: cell-based, human
Method: as §2
(§12) According to the procedure described in “Measurement of Cell Viability” above, normal human dermal fibroblasts were treated and cultured (co-culture), and cells or the culture solution was recovered. The concentrations of VB2 and VB3 used and the notation of the samples in FIGS. 10 and 11, which are graphs showing the results, are also similar to the above “Measurement of Cell Viability”.
(§13) The production amounts of hyaluronic acid and Elastin were measured by an ELISA method. The results of measuring the amount of hyaluronic acid secreted from normal human dermal fibroblasts into the culture supernatant by the ELISA method are shown in FIG. 10, and the results of measuring the amount of intracellular Elastin production by the ELISA method are shown in FIG. 11.

[3] = tested on: AGE receptor (FEEL-1, FEEL-2, CD-36, AGE-R1, AGE-R2, AGE-R3 and RAGE); assay: mRNA levels of AGE receptors by qRT-PCR in normal human dermal fibroblasts; format: cell-based; settings: VB alone, no AGE, 37° C. 4 hours, compared with untreated group
Method: as §3, §4, §5, §6

FEEL-2 = FEEL-2 mRNA level by qRT-PCR in AGE-treated fibroblasts; format: cell-based, human; settings: co-existence with AGE 100 μg/mL, 4 hours, compared with AGE single stimulation group
Method: as §3, §4, §5, §6

[4] = tested on: heat shock protein (Hsp104, gp96, Hsp90, Hsp70, Hsp60, and Hsp32); assay: mRNA levels of heat shock proteins by qRT-PCR in fibroblasts; format: cell-based, human; settings: 4 hours
Method: as §3
First, as a co-existence group of VB and AGE, normal human dermal fibroblasts were treated with AGE (100 μg/mL), and the above VB2 (concentration after dilution: 115 μg/ml) and VB3 (concentration after dilution: 1000 μg/mL) diluted to an accurate 1/1000 amount were each added and retained at 37° C. for 4 hours.
In addition, as the VB single stimulation group, normal human dermal fibroblasts were not treated with AGE, and the above VB2 and VB3 diluted to an accurate 1/1000 amount were each added and held at 37° C. for 4 hours. Furthermore, as the AGE single stimulation group, normal human dermal fibroblasts were treated with AGE and kept at 37° C. for 4 hours without addition of VB2 or VB3. In addition, as an untreated group, normal human dermal fibroblasts were not treated with AGE, and were kept at 37° C. for 4 hours without adding VB2 or VB3.
Then, total RNA was extracted from the cells using Trizol reagent (Ambion), and mRNA levels of AGE receptor (FEEL-1, FEEL-2, CD-36, AGE-R1, AGE-R2, AGE-R3 and RAGE) and heat shock protein (Hsp104, gp96, Hsp90, Hsp70, Hsp60, and Hsp32) were measured by qRT-PCR (one-step quantitative reverse transcription-polymerase chain reaction) method.
The measurement results for AGE receptor are shown in FIG. 1, and the measurement results for heat shock protein are shown in FIG. 2. In FIG. 1 and FIG. 2, for the co-existence group of AGE and VB, samples to which VB2 and VB3 were added are indicated as VB2(+)AGE and VB3(+)AGE, respectively, and these values were shown in comparison with the AGE single stimulation group. In addition, for the VB single stimulation group, samples to which VB2 and VB3 were added were indicated as VB2 alone and VB3 alone, respectively, and these values were shown in comparison with the untreated group.
as §9
As a PCR device, Thermal Cycler Dice Real Time System II manufactured by Takara was used. […]
as §11

Elastin = assay: Intracellular Elastin production (ELISA); format: cell-based, human
Method: as §2, §12, §13

[5] = tested on: normal human dermal fibroblasts; assay: Cell viability under hydrogen peroxide oxidative stress (Cell counting-8 kit); format: cell-based; settings: for cell viability, trend: 1-300 μg/mL
Method: as §3, §2
In FIG. 5 which is a graph showing the results, a sample obtained by adding VB2 or VB3 after adding hydrogen peroxide was denoted as “H2O2-VB2” and “H2O2-VB3”, respectively, and a sample obtained by adding hydrogen peroxide after adding VB2 or VB3 was denoted as “VB2-H2O2” and “VB3-H2O2”, respectively.
Here, VB2 and VB3 were added at concentrations of 1 μg/mL, 10 μg/mL, 100 μg/mL, and 300 μg/mL, respectively.
The normal human dermal fibroblasts to which neither hydrogen peroxide nor VB2 nor VB3 was added were treated in the same manner as described above, and measured as Control. In addition, a sample to which VB2 or VB3 was not added (in FIG. 5, it is denoted as “H2O2”) was also treated in the same manner as described above, and measurement was performed.
The number of surviving cells in normal human dermal fibroblasts was measured using Cell counting −8 kit (DOJINDO: , Japan).

AQP-3 = AQP-3 mRNA level under oxidative stress (qRT-PCR); format: cell-based, human
Method: as §2, §7, §8, §9, §10, §11

[6] = added before or after 0.2 mM hydrogen peroxide
[7] = added in advance before oxidative stress, compared with addition after
[8] = added in advance before applying oxidative stress

mRNA expression of AGE receptor [3]: did not affect
Substance: Na9[SbW9O33] [VB3]
ROS production (intracellular ROS [1]): suppressed in a concentration-dependent manner
mRNA level of RAGE (RAGE): significantly increased
intracellular ROS under AGE stimulation (intracellular ROS [2]): suppress the increase in ROS
mRNA level of FEEL-1 (FEEL-1): significantly increased
mRNA level of AQP-1 (AQP-1; [6]): increased
AQP-1 mRNA repair ability, addition before vs after oxidative stress (AQP-1; [7]): tended to have a stronger repair ability
SOD amount (SOD): tended to be recovered in a concentration-dependent manner
amount of hyaluronic acid (hyaluronic acid; 0.2 mM hydrogen peroxide oxidative stress, culture supernatant): tended to be recovered
hyaluronic acid repair ability, addition before vs after oxidative stress (hyaluronic acid; [7]): tended to have a stronger repair ability
mRNA level of FEEL-2 (FEEL-2): significantly increased
mRNA expression of Hsp ([4]; VB alone, no AGE, compared with untreated group): did not affect
mRNA levels of all Hsps other Hsp 90 among the examined Hsps ([4]; co-existence with AGE 100 μg/mL, compared with AGE single stimulation group): significantly increased
Elastin production amount (Elastin; added after application of oxidative stress (H2O2 only 56% of Control)): could not be recovered
Elastin production amount (Elastin; [8]): significant recovery
concentration at which Elastin production amount was significantly higher than Control (Elastin; [8]): 300 µg/mL
maximum cell viability ([5]; added after 0.2 mM hydrogen peroxide, 300 μg/mL, % of Control (H2O2 only 59%)): 78%
cell viability, trend ([5]; added after 0.2 mM hydrogen peroxide): increased in a concentration-dependent manner
cell viability, trend ([5]; added in advance before 0.2 mM hydrogen peroxide): significant increase in a concentration-dependent manner
mRNA level of AQP-3 (AQP-3; [6]): increased
AQP-3 mRNA repair ability, addition before vs after oxidative stress (AQP-3; [7]): tended to have a stronger repair ability

Source: patent US20240374487A1, “ANTI-AGING AGENT, COSMETIC PRODUCT, WET TOWEL, AND HYGIENE PRODUCT” (VB JAPAN TECHNOLOGY CO., LTD., priority 2021, published 2024)
